# Results as given in paper PMC3281193, “Quinol derivatives as potential trypanocidal agents” (Bioorganic & Medicinal Chemistry, 2012).
# Where two headings read alike, the source gives them in different places.
# Assays:
# [1] = tested on: wild type T. brucei; test: 96-well manual assay on wild type T. brucei; type: cell-based; conditions: Trypanosoma brucei, read-out: T. brucei EC50 (SD)
# Description: (§1) In order to determine if analogues 35, 38, 44 and 46 are substrates for the P2 transporter they were assayed against a line of T. brucei lacking the gene which codes for the P2 transporter (Table 2).[33] If the analogues are transported they would be expected to show greater potency against wild type T. brucei than against the P2 knock out line. Compounds 8 and 19,[25] which contain the triazole and indolyl quinol pharmacophore respectively, but lack a P2 motif, served as negative controls.
# (§2) The 96-well HTS assays against blood stream form T. brucei[38] and MRC5 cells were carried out as reported previously.[39] The manual assays performed on the AT1 double knock out T. brucei and wild type T. brucei were conducted as described by Jones et al.[39]
# [2] = tested on: T. brucei AT1 KO; test: 96-well manual assay on AT1 double knock out T. brucei (P2 transporter knock out); type: cell-based, Trypanosoma brucei; conditions: for EC50: Trypanosoma brucei, read-out: T. brucei AT1 KO EC50 (SD); for Cell line selectivity: EC50 (AT1 KO)/EC50 (WT): manual assay
# Description: as §1, with “If the analogues are transported they would be expected to show greater potency against wild type T. brucei than against the P2 knock out line.” left out
# as §2
# [3] = tested on: blood stream form T. brucei; test: 96-well HTS assay against blood stream form T. brucei; type: cell-based, Trypanosoma brucei; conditions: for EC50: Trypanosoma brucei
# Description: as §2
# [4] = tested on: MRC5 cells; test: cells; type: cell-based, human; conditions: Homo sapiens, MRC5, read-out: EC50 MRC5 (SD, n)
# Description: as §2
# [5] = tested on: blood stream form T. brucei; set-up: method as in PMID 21212280; conditions: cited from earlier work; for EC50: Table 1, data taken from Konig et al.
# [6] = tested on: MRC5 cells; set-up: method as in PMID 21212280; conditions: Table 1; data taken from Konig et al.; cited from earlier work
# [7] = in vitro; type: cell-based, human; conditions: human
# Description: as §2
# [8] = Table 2, 96-well manual assay, wild type, weighted mean of three independent experiments
# [9] = Table 1, arithmetic mean of independent determinations, read-out: EC50 T. brucei (SD, n)
# [10] = Table 2, 96-well HTS assay, blood stream form T. b. brucei, read-out: T. brucei EC50 (SD, n)
structure (smiles),measurement,setting,value
"N=C(N)c1ccc(/N=N/Nc2ccc(C(=N)N)cc2)cc1 [Berenil, reference compound]",EC50,[1]; [8],31 nM
same,EC50,[2],330 nM
same,Cell line selectivity: EC50 (AT1 KO)/EC50 (WT),[2],11
"C#CC1(O)C=CC(=O)C=C1 [Compound 1, 4-Ethynyl-4-hydroxycyclohexa-2,5-dienone]",EC50,[3]; [9],2000 nM
same,EC50,[4],2100 nM
"O=C1C=CC(O)(C#Cc2ccc(CC(=O)Nc3ccccc3)cc2)C=C1 [Compound 3, 2-(4-((1-Hydroxy-4-oxocyclohexa-2,5-dien-1-yl)ethynyl)phenyl)-N-phenylacetamide]",EC50,[3]; [9],2200 nM
same,EC50,[4],670 nM
O=C1C=CC(O)(c2nc3ccccc3s2)C(Cl)=C1 (centres unmarked) [Compound 6],activity against T. brucei in words,[3],low nanomolar range
same,EC50,[3]; [9],46 nM
same,EC50,[4],55 nM
Oc1ccc(-c2nc3ccccc3s2)cc1 [Compound 7],EC50,[5],> 50000 nM
same,activity against T. brucei in words,[5],inactive
same,EC50,[6],> 50000 nM
COc1ccc(-n2cc(C3(O)C=CC(=O)C=C3)nn2)cc1 [Compound 8],EC50,[1],95 nM
same,EC50,[2],74 nM
same,Cell line selectivity: EC50 (AT1 KO)/EC50 (WT),[2],0.78
COc1ccc(Cn2cc(C3(O)C=CC(=O)C=C3)nn2)cc1 [Compound 9],EC50,[3]; [9],160 nM
same,EC50,[4],450 nM
O=C1C=CC(O)(c2cn(-c3ccc4ncsc4c3)nn2)C=C1 [Compound 10],activity against T. brucei in words,[3],low nanomolar range
same,EC50,[3]; [9],27 nM
same,EC50,[4],69 nM
CC(=O)OC[C@H]1O[C@@H](n2cc(C3(O)C=CC(=O)C=C3)nn2)[C@H](OC(C)=O)[C@@H](OC(C)=O)[C@H]1OC(C)=O [Compound 11],EC50,[3]; [9],10000 nM
same,EC50,[4],> 50000 nM
"O=C1C=CC(O)(c2cn(CCC(=O)Nc3ccccc3)nn2)C=C1 [Compound 12, 3-(4-(1-Hydroxy-4-oxocyclohexa-2,5-dien-1-yl)-1H-1,2,3-triazol-1-yl)-N-phenylpropanamide]",EC50,[3]; [9],2700 nM
same,EC50,[4],18000 nM
O=C1C=CC(O)(c2cc3ccc(F)cc3n2S(=O)(=O)c2ccccc2)C=C1 [Compound 13],EC50,[5],100 nM
O=C1C=CC(O)(c2cc3cnccc3n2S(=O)(=O)c2ccccc2)C=C1 [Compound 15],activity against T. brucei in words,[3],low nanomolar range
same,EC50,[3]; [9],22 nM
same,EC50,[4],41 nM
Cc1ccc(S(=O)(=O)n2c(C3(O)C=CC(=O)C=C3)cc3ccncc32)cc1 [Compound 16],activity against T. brucei in words,[3],low nanomolar range
same,EC50,[3]; [9],26 nM
same,EC50,[4],44 nM
CCOC(=O)Nc1ccc(S(=O)(=O)n2c(C3(O)C=CC(=O)C=C3)cc3ccccc32)cc1 [Compound 17],EC50,[3]; [9],50 nM
same,EC50,[4],86 nM
CC(=O)NCCc1ccc(S(=O)(=O)n2c(C3(O)C=CC(=O)C=C3)cc3ccccc32)cc1 [Compound 18],activity against T. brucei in words,[3],low nanomolar range
same,EC50,[3]; [9],12 nM
same,EC50,[4],36 nM
"COC(=O)CCc1ccc(S(=O)(=O)n2c(C3(O)C=CC(=O)C=C3)cc3ccccc32)cc1 [Compound 19, Methyl 3-(4-((2-(1-hydroxy-4-oxocyclohexa-2,5-dien-1-yl)-1H-indol-1-yl)sulfonyl)phenyl) propanoate]",EC50,[1]; [8],60 nM
same,EC50,[2],80 nM
same,Cell line selectivity: EC50 (AT1 KO)/EC50 (WT),[2],1.3
same,EC50,[3]; [9],160 nM
same,EC50,[3]; [10],160 nM
same,EC50,[7],280 nM
same,EC50,[4],280 nM
O=C1C=CC(O)(c2cc3ccccc3n2S(=O)(=O)c2ccc(CCCO)cc2)C=C1 [Compound 20],EC50,[3]; [9],24 nM
same,EC50,[4],51 nM
O=C1C=CC(O)(c2cc3ccccc3n2S(=O)(=O)c2ccc(CCC(=O)N3CCOCC3)cc2)C=C1 [Compound 21],EC50,[3]; [9],36 nM
same,EC50,[4],67 nM
CN1CCN(C(=O)CCc2ccc(S(=O)(=O)n3c(C4(O)C=CC(=O)C=C4)cc4ccccc43)cc2)CC1 [Compound 22],EC50,[3]; [9],18 nM
same,EC50,[4],52 nM
O=C1C=CC(O)(c2cc3ccccc3n2S(=O)(=O)c2ccc(CCCN3CCOCC3)cc2)C=C1 [Compound 23],EC50,[3]; [9],26 nM
same,EC50,[4],79 nM
CN1CCN(CCCc2ccc(S(=O)(=O)n3c(C4(O)C=CC(=O)C=C4)cc4ccccc43)cc2)CC1 [Compound 24],EC50,[3]; [9],16 nM
same,EC50,[4],50 nM
CS(=O)(=O)c1ccc(S(=O)(=O)n2c(C3(O)C=CC(=O)C=C3)cc3ccccc32)cc1 [Compound 25],EC50,[3]; [9],24 nM
same,EC50,[4],39 nM
"N=C(N)c1ccc(-n2cc(C3(O)C=CC(=O)C=C3)nn2)cc1 [Compound 35, 4-(4-(1-Hydroxy-4-oxocyclohexa-2,5-dienyl)-1H-1,2,3-triazol-1-yl)benzimidamide]",EC50,[1]; [8],5000 nM
same,EC50,[2],6000 nM
same,Cell line selectivity: EC50 (AT1 KO)/EC50 (WT),[2],1.2
same,EC50,[3]; [10],11000 nM
same,EC50,[7],> 50000 nM
"Nc1nc(N)nc(-n2cc(C3(O)C=CC(=O)C=C3)nn2)n1 [Compound 38, 4-(1-(4,6-Diamino-1,3,5-triazin-2-yl)-1H-1,2,3-triazol-4-yl)-4-hydroxycyclohexa-2,5-dienone]",EC50,[1]; [8],3800 nM
same,EC50,[2],3800 nM
same,Cell line selectivity: EC50 (AT1 KO)/EC50 (WT),[2],1.0
same,EC50,[3]; [10],6200 nM
same,EC50,[7],> 50000 nM
"O=C1C=CC(O)(c2cc3ccccc3n2S(=O)(=O)c2ccc(CCC(=O)O)cc2)C=C1 [Compound 42, 3-(4-((2-(1-Hydroxy-4-oxocyclohexa-2,5-dien-1-yl)-1H-indol-1-yl)sulfonyl)phenyl)propanoic acid]",EC50,[3]; [10],740 nM
same,EC50,[7],3300 nM
"Nc1nc(N)nc(NCCCOC(=O)CCc2ccc(S(=O)(=O)n3c(C4(O)C=CC(=O)C=C4)cc4ccccc43)cc2)n1 [Compound 44, 3-((4,6-Diamino-1,3,5-triazin-2-yl)amino)propyl 3-(4-((2-(1-hydroxy-4-oxocyclohexa-2,5-dien-1-yl)-1H-indol-1-yl)sulfonyl)phenyl)propanoate]",EC50,[1]; [8],250 nM
same,EC50,[2],260 nM
same,Cell line selectivity: EC50 (AT1 KO)/EC50 (WT),[2],1.0
same,EC50,[3]; [10],350 nM
same,EC50,[7],950 nM
"Nc1nc(N)nc(NCCCNC(=O)CCc2ccc(S(=O)(=O)n3c(C4(O)C=CC(=O)C=C4)cc4ccccc43)cc2)n1 [Compound 46, N-(3-((4,6-Diamino-1,3,5-triazin-2-yl)amino)propyl)-3-(4-((2-(1-hydroxy-4-oxocyclohexa-2,5-dien-1-yl)-1H-indol-1-yl)sulfonyl)phenyl)propanamide]",EC50,[1]; [8],1700 nM
same,EC50,[2],1800 nM
same,Cell line selectivity: EC50 (AT1 KO)/EC50 (WT),[2],1.1
same,EC50,[3]; [10],3200 nM
same,EC50,[7],18000 nM
"Nc1nc(N)nc(Nc2ccc([As]3SCC(CO)S3)cc2)n1 (centres unmarked) [melarsoprol, reference compound]",EC50,[3]; read-out: EC50 against T. brucei,33 nM
"N=C(N)c1ccc(OCCCCCOc2ccc(C(=N)N)cc2)cc1 [pentamidine, reference compound]",EC50,"[3]; reference drugs assayed under identical conditions, read-out: EC50 against T. brucei",8 nM
